Literature values in patent US5424332A, “Pharmaceutical composition and process for the production thereof” (priority 1993, dated 1995).

Tested on: aflotoxin toxic effects

## O=C(O)/C=C/C(=O)O [fumaric acid]
  toxic effects of aflotoxin: reduces the toxic effects
